In US9809574B2, “Isoindoline or isoquinoline compounds, a process for their preparation and pharmaceutical compositions containing them” (LES LABORATOIRES SERVIER, priority 2013, dated 2017):

Assays:
[1] = tested on: RS4; 11 leukaemia cell line; assay: In vitro cytotoxicity, Microculture Tetrazolium Assay (MTT); assay type: cell-based; conditions: Homo sapiens, 11 cells exposed for 48 hours
Description: The cytotoxicity studies were carried out on the RS4; 11 leukaemia cell line and on H146 small Cell Lung Carcinoma cell line. The cells are distributed onto microplates and exposed to the test compounds for 48 hours. The cell viability is then quantified by a colorimetric assay, the Microculture Tetrazolium Assay (Cancer Res., 1987, 47, 939-942).

Bcl-2 protein = Bcl-2 protein (histag-Bcl-2, UniProtKB P10415) (Homo sapiens (Human), UniProt P10415); assay: Inhibition of Bcl-2 by the fluorescence polarisation technique; assay type: binding; conditions: fluorescence polarisation test; incubation for 2 hours; read-out: IC50 (nM) Bcl-2 FP
Sequence of Bcl-2 protein (P10415 whole entry): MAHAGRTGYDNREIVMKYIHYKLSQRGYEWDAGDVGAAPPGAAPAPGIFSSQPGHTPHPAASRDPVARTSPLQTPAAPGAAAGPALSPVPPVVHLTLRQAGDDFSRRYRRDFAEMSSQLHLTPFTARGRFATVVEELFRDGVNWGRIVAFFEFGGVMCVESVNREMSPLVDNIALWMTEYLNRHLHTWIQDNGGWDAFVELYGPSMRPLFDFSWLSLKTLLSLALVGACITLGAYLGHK
Excerpt: For partial inhibitors, the percentage fluorescence polarisation inhibition for a given concentration of the test compound is indicated.

Structure (SMILES) | IC50 (Bcl-2 protein) [nM] | IC50 [1] [nM]
Cc1c(C(=O)N(C)c2ccccc2)cc(-c2cc3c(cc2C(=O)N2Cc4ccccc4C[C@H]2C)CN(C(=O)Oc2cccc(OCCN(C)C)c2)CC3)n1C [Example 448, 3-[2-(Dimethylamino)ethoxy]phenyl 6-{1,5-dimethyl-4-[methyl(phenyl)carbamoyl]-1H-pyrrol-2-yl}-7-[(3R)-3-methyl-1,2,3,4-tetrahydroisoquinoline-2-carbonyl]-1,2,3,4-tetrahydroisoquinoline-2-carboxylate] | 4 | 8.2
CC(Cc1ccc(Cl)cc1)C(=O)N1Cc2cc(C(=O)N3Cc4ccccc4C[C@H]3C)c(-c3cc(C(=O)N(C)c4ccc(O)cc4)c4n3CCCC4)cc2C1 (stereo partly drawn) [Example 24, 3-(2-{2-[(4-Chlorophenyl)methyl]propanoyl}-6-[(3R)-3-methyl-1,2,3,4-tetrahydroisoquinoline-2-carbonyl]-2,3-dihydro-1H-isoindol-5-yl)-N-(4-hydroxyphenyl)-N-methyl-5,6,7,8-tetrahydroindolizine-1-carboxamide] | 19 | > 150
C[C@@H]1Cc2ccccc2CN1C(=O)c1cc2c(cc1-c1cc(C(=O)N(C)c3ccc(O)cc3)c3n1CCCC3)CCN(S(=O)(=O)c1ccc3ccccc3c1)C2 [Example 41, N-(4-Hydroxyphenyl)-N-methyl-3-{7-[(3R)-3-methyl-1,2,3,4-tetrahydroisoquinoline-2-carbonyl]-2-(naphthalene-2-sulfonyl)-1,2,3,4-tetrahydroisoquinolin-6-yl}-5,6,7,8-tetrahydroindolizine-1-carboxamide] | 26 | 78
Cc1c(C(=O)N(C)c2ccccc2)cc(-c2cc3c(cc2C(=O)N2Cc4ccccc4C[C@H]2C)CN(C(=O)Oc2ccc(CCC(=O)N(C)C)cc2)CC3)n1C [Example 788, 4-[2-(Dimethylcarbamoyl)ethyl]phenyl 6-{1,5-dimethyl-4-[methyl(phenyl)carbamoyl]-1H-pyrrol-2-yl}-7-[(3R)-3-methyl-1,2,3,4-tetrahydroisoquinoline-2-carbonyl]-1,2,3,4-tetrahydroisoquinoline-2-carboxylate] | 4.4 | 14
Cc1c(C(=O)N(C)c2ccc(O)cc2)cc(-c2cc3c(cc2C(=O)N2Cc4ccccc4C[C@H]2CN2CCOCC2)CN(C(=O)Oc2ccc(Cl)cc2)CC3)n1C [Example 140, 4-Chlorophenyl 6-{4-[(4-hydroxyphenyl)(methyl)carbamoyl]-1,5-dimethyl-1H-pyrrol-2-yl}-7-[(3S)-3-(morpholin-4-ylmethyl)-1,2,3,4-tetrahydroisoquinoline-2-carbonyl]-1,2,3,4-tetrahydroisoquinoline-2-carboxylate] | 6.6 | 4
Cc1c(C(=O)N(C)c2ccccc2)cc(-c2cc3c(cc2C(=O)N2Cc4ccccc4C[C@H]2CN2CCN(C)CC2)CN(C(=O)Oc2cccc(C(=O)O)c2)CC3)n1C [Example 735, 3-(6-{1,5-Dimethyl-4-[methyl(phenyl)carbamoyl]-1H-pyrrol-2-yl}-7-[(3S)-3-[(4-methylpiperazin-1-yl)methyl]-1,2,3,4-tetrahydroisoquinoline-2-carbonyl]-1,2,3,4-tetrahydroisoquinoline-2-carbonyloxy)benzoic acid] | 12 | > 150
C[C@@H]1Cc2ccccc2CN1C(=O)c1cc2c(cc1-c1cc(C(=O)N(C)c3ccc(O)cc3)c3n1CCCC3)CCN(S(=O)(=O)c1ccccc1)C2 [Example 39, 3-[2-(Benzenesulfonyl)-7-[(3R)-3-methyl-1,2,3,4-tetrahydroisoquinoline-2-carbonyl]-1,2,3,4-tetrahydroisoquinolin-6-yl]-N-(4-hydroxyphenyl)-N-methyl-5,6,7,8-tetrahydroindolizine-1-carboxamide] | 14 | 106
Cc1c(C(=O)N(C)c2ccc(O)cc2)cc(-c2cc3c(cc2C(=O)N2Cc4ccccc4C[C@H]2CN(C)C)CN(C(=O)Oc2ccccc2)CC3)n1C [Example 211, Phenyl 7-[(3S)-3-[(dimethylamino)methyl]-1,2,3,4-tetrahydroisoquinoline-2-carbonyl]-6-{4-[(4-hydroxyphenyl)(methyl)carbamoyl]-1,5-dimethyl-1H-pyrrol-2-yl}-1,2,3,4-tetrahydroisoquinoline-2-carboxylate] | 3.4 | 6.9

Continued, in another order:

IC50 (Bcl-2 protein) [nM] | Structure (SMILES) | IC50 [1] [nM]
3.2 | Cc1c(C(=O)N(C)c2ccc(O)cc2)cc(-c2cc3c(cc2C(=O)N2Cc4ccccc4C[C@H]2C)CN(C(=O)Oc2ccc(C#N)cc2)CC3)n1C [Example 147, 4-Cyanophenyl 6-{4-[(4-hydroxyphenyl)(methyl)carbamoyl]-1,5-dimethyl-1H-pyrrol-2-yl}-7-[(3R)-3-methyl-1,2,3,4-tetrahydroisoquinoline-2-carbonyl]-1,2,3,4-tetrahydroisoquinoline-2-carboxylate] | 2.3
3.3 | C[C@@H]1Cc2ccccc2CN1C(=O)c1cc2c(cc1-c1cc(C(=O)N(C)c3ccc(O)cc3)c3n1CCCC3)CCN(C(=O)Cc1cccc(N3CCN(C)CC3)c1)C2 [Example 169, N-(4-Hydroxyphenyl)-N-methyl-3-{7-[(3R)-3-methyl-1,2,3,4-tetrahydroisoquinoline-2-carbonyl]-2-{2-[3-(4-methylpiperazin-1-yl)phenyl]acetyl}-1,2,3,4-tetrahydroisoquinolin-6-yl}-5,6,7,8-tetrahydroindolizine-1-carboxamide] | 3
21 | C[C@@H]1Cc2ccccc2CN1C(=O)c1cc2c(cc1-c1cc(C(=O)N(C)c3ccc(O)cc3)c3n1CCCC3)CN(C(=O)N(C)C(C)(C)C)C2 [Example 81, N-tert-Butyl-5-{1-[(4-hydroxyphenyl)(methyl)carbamoyl]-5,6,7,8-tetrahydroindolizin-3-yl}-N-methyl-6-[(3R)-3-methyl-1,2,3,4-tetrahydroisoquinoline-2-carbonyl]-2,3-dihydro-1H-isoindole-2-carboxamide] | > 150
4.8 | C[C@@H]1Cc2ccccc2CN1C(=O)c1cc2c(cc1-c1cc(C(=O)N(C)c3ccc(O)cc3)c3n1CCCC3)CCN(C(=O)Cc1ccc(CN(C)C)cc1)C2 [Example 144, 3-[2-(2-{4-[(Dimethylamino)methyl]phenyl}acetyl)-7-[(3R)-3-methyl-1,2,3,4-tetrahydroisoquinoline-2-carbonyl]-1,2,3,4-tetrahydroisoquinolin-6-yl]-N-(4-hydroxyphenyl)-N-methyl-5,6,7,8-tetrahydroindolizine-1-carboxamide] | 82
14 | CCC(C(=O)N1CCc2cc(-c3cc(C(=O)N(C)c4ccc(O)cc4)c4n3CCCC4)c(C(=O)N3Cc4ccccc4C[C@H]3C)cc2C1)c1ccccc1 (stereo partly drawn) [Example 95, N-(4-Hydroxyphenyl)-N-methyl-3-{7-[(3R)-3-methyl-1,2,3,4-tetrahydroisoquinoline-2-carbonyl]-2-(2-phenylbutanoyl)-1,2,3,4-tetrahydroisoquinolin-6-yl}-5,6,7,8-tetrahydroindolizine-1-carboxamide] | 115
6.5 | C[C@@H]1Cc2ccccc2CN1C(=O)c1cc2c(cc1-c1cc(C(=O)N(C)c3ccc(O)cc3)c3n1CCCC3)CN(C(=O)Nc1ccc(N3CCN(C)CC3)cc1)C2 [Example 65, 5-{1-[(4-Hydroxyphenyl)(methyl)carbamoyl]-5,6,7,8-tetrahydroindolizin-3-yl}-6-[(3R)-3-methyl-1,2,3,4-tetrahydroisoquinoline-2-carbonyl]-N-[4-(4-methylpiperazin-1-yl)phenyl]-2,3-dihydro-1H-isoindole-2-carboxamide] | 51
5.3 | Cc1c(C(=O)N(C)c2ccc(O)cc2)cc(-c2cc3c(cc2C(=O)N2Cc4ccccc4C[C@H]2C)CN(C(=O)CC2CCCCC2)CC3)n1C [Example 795, 5-[2-(2-Cyclohexylacetyl)-7-[(3R)-3-methyl-1,2,3,4-tetrahydroisoquinoline-2-carbonyl]-1,2,3,4-tetrahydroisoquinolin-6-yl]-N-(4-hydroxyphenyl)-N,1,2-trimethyl-1H-pyrrole-3-carboxamide] | 32
4.9 | C[C@@H]1Cc2ccccc2CN1C(=O)c1cc2c(cc1-c1cc(C(=O)N(C)c3ccc(O)cc3)c3n1CCCC3)CCN(C(=O)CCc1ccccc1)C2 [Example 37, N-(4-Hydroxyphenyl)-N-methyl-3-{7-[(3R)-3-methyl-1,2,3,4-tetrahydroisoquinoline-2-carbonyl]-2-(3-phenylpropanoyl)-1,2,3,4-tetrahydroisoquinolin-6-yl}-5,6,7,8-tetrahydroindolizine-1-carboxamide] | 18
2.8 | Cc1c(C(=O)N(C)c2ccc(O)cc2)cc(-c2cc3c(cc2C(=O)N2Cc4ccccc4C[C@H]2CN2CCOCC2)CN(C(=O)OC2CCCCC2)CC3)n1C [Example 791, Cyclohexyl 6-{4-[(4-hydroxyphenyl)(methyl)carbamoyl]-1,5-dimethyl-1H-pyrrol-2-yl}-7-[(3S)-3-(morpholin-4-ylmethyl)-1,2,3,4-tetrahydroisoquinoline-2-carbonyl]-1,2,3,4-tetrahydroisoquinoline-2-carboxylate] | 54
3.6 | Cc1c(C(=O)N(C)c2ccc(O)cc2)cc(-c2cc3c(cc2C(=O)N2Cc4ccccc4C[C@H]2C)CN(C(=O)COc2ccccc2)C3)n1C [Example 103, N-(4-Hydroxyphenyl)-N,1,2-trimethyl-5-{6-[(3R)-3-methyl-1,2,3,4-tetrahydroisoquinoline-2-carbonyl]-2-(2-phenoxyacetyl)-2,3-dihydro-1H-isoindol-5-yl}-1H-pyrrole-3-carboxamide] | 46
